According to US6861434B2, “Antipsychotic aminomethyl derivatives of 1,3,7,8-tetrahydro-6,9-dioxa-1,3-diaza-cyclopenta[a]-naphthalen-2-one” (Wyeth, priority 2001, dated 2005):
Structures can show the parent of a compound that is named as a salt. Values belong to the compound of their own block, whether it stands above or below them.

Assays:
[1] = target: T1, dopamine D2 receptor (Rattus norvegicus, UniProt P61169); assay: Dopamine D2 receptor affinity, 3H-quinpirole binding in homogenized rat striatal brain tissue
T1 construct: from tissue; host or cells: rat striatal brain tissue homogenate
T1 sequence (P61169 whole entry): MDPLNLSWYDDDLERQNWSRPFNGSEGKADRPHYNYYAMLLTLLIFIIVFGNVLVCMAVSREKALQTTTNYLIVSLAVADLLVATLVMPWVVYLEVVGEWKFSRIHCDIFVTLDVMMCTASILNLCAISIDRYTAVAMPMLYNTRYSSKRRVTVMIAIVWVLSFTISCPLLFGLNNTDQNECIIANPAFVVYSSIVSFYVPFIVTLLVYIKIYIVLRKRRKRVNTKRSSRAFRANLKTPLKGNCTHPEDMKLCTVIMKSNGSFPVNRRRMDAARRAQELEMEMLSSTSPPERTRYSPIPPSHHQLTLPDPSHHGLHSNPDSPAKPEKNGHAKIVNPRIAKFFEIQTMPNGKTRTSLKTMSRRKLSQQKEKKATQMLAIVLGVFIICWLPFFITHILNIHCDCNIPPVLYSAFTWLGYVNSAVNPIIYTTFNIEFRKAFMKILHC
Description: Affinity for the dopamine D2 receptor was established by a modification of the standard experimental test procedure of Seemen and Schaus, European Journal of Pharmacology 203: 105-109, 1991, wherein homogenized rat striatal brain tissue is incubated with ^3H-quinpirole and various concentrations of test compound, filtered and washed and counted in a Betaplate scintillation counter.

Structure (SMILES): O=c1[nH]c2ccc3c(c2[nH]1)OC(CNCC12CC4CC(CC(C4)C1)C2)CO3 (stereo not drawn) (as salt: hydrochloride) (hydrate or solvate) [Example 4, 8-{[(Adamantan-1-ylmethyl)-amino]-methyl}-1,3,7,8-tetrahydro-6,9-dioxa-1,3-diaza-cyclopenta[a]naphthalen-2-one]
- melting point: > 250 °C

Structure (SMILES): O=c1[nH]c2ccc3c(c2[nH]1)OC(CNCc1ccccc1)CO3 (stereo not drawn) (as salt: fumarate) (hydrate or solvate) [Example 1, 8-(Benzylamino-methyl)-1,3,7,8-tetrahydro-6,9-dioxa-1,3-diaza-cyclopenta[a]naphthalen-2-one]
- melting point: 149 to 151 °C

Structure (SMILES): O=c1[nH]c2ccc3c(c2[nH]1)OC(CNCC12CC4CC(CC(C4)C1)C2)CO3 (stereo not drawn) [Example 4, 8-{[(Adamantan-1-ylmethyl)-amino]-methyl}-1,3,7,8-tetrahydro-6,9-dioxa-1,3-diaza-cyclopenta[a]naphthalen-2-one]
- IC50 [1]: 0.84 nM

Structure (SMILES): O=c1[nH]c2ccc3c(c2[nH]1)OC(CNCCCCc1ccccc1)CO3 (stereo not drawn) [Example 2, 8-[(4-Phenyl-butylamino)-methyl]-1,3,7,8-tetrahydro-6,9-dioxa-1,3-diaza-cyclopenta[a]naphthalen-2-one]
- IC50 [1]: 0.18 nM

Structure (SMILES): O=c1[nH]c2ccc3c(c2[nH]1)OC(CNCCCCc1ccccc1)CO3 (stereo not drawn) (as salt: fumarate) (hydrate or solvate) [Example 2, 8-[(4-Phenyl-butylamino)-methyl]-1,3,7,8-tetrahydro-6,9-dioxa-1,3-diaza-cyclopenta[a]naphthalen-2-one]
- melting point: 224 to 226 °C

Structure (SMILES): O=c1[nH]c2ccc3c(c2[nH]1)OC(CN1CC=C(c2ccccc2)CC1)CO3 (stereo not drawn) (as salt: fumarate) (hydrate or solvate) [Example 3, 8-(4-Phenyl-5,6-dihydro-2H-pyridin-1-ylmethyl)-1,3,7,8-tetrahydro-6,9-dioxa-1,3-diaza-cyclopenta[a]naphthalen-2-one]
- melting point: 205 to 209 °C

Structure (SMILES): O=c1[nH]c2ccc3c(c2[nH]1)OC(CNCc1ccccc1)CO3 (stereo not drawn) [Example 1, 8-(Benzylamino-methyl)-1,3,7,8-tetrahydro-6,9-dioxa-1,3-diaza-cyclopenta[a]naphthalen-2-one]
- IC50 [1]: 0.39 nM

Structure (SMILES): O=c1[nH]c2ccc3c(c2[nH]1)OC(CN1CC=C(c2ccccc2)CC1)CO3 (stereo not drawn) [Example 3, 8-(4-Phenyl-5,6-dihydro-2H-pyridin-1-ylmethyl)-1,3,7,8-tetrahydro-6,9-dioxa-1,3-diaza-cyclopenta[a]naphthalen-2-one]
- IC50 [1]: 1.3 nM

Further lines, results first:

- melting point: > 275 °C
Structure (SMILES): O=c1[nH]c2ccc3c(c2[nH]1)OC(CN1CCC2C=CC=CC2C1)CO3 (stereo not drawn) (as salt: hydrochloride) [Example 5]

- IC50 [1]: 0.55 nM
Structure (SMILES): CC(=O)Nc1cccc(OCCCNCC2COc3ccc4[nH]c(=O)[nH]c4c3O2)c1 (stereo not drawn) [Example 7, N-(3-{3-[(2-Oxo-2,3,7,8-tetrahydro-1H-6,9-dioxa-1,3-diaza-cyclopenta[a]naphthalen-8-ylmethyl)-amino]propoxy}-phenyl)-acetamide]

- melting point: 125 °C (dec.)
Structure (SMILES): CC(=O)Nc1cccc(OCCCNCC2COc3ccc4[nH]c(=O)[nH]c4c3O2)c1 (stereo not drawn) (as salt: fumarate) (hydrate or solvate) [Example 7, N-(3-{3-[(2-Oxo-2,3,7,8-tetrahydro-1H-6,9-dioxa-1,3-diaza-cyclopenta[a]naphthalen-8-ylmethyl)-amino]propoxy}-phenyl)-acetamide]

- melting point: 200 to 207 °C (dec.)
Structure (SMILES): O=c1[nH]c2ccc3c(c2[nH]1)OC(CNCCCc1c[nH]c2ccccc12)CO3 (stereo not drawn) (as salt: hydrochloride) [Example 8, 8-{[3-(1H-indol-3-yl)-propylamino]-methyl}-1,3,7,8-tetrahydro-6,9-dioxa-1,3-diaza-cyclopenta[a]naphthalen-2-one]

- IC50 [1]: 1.43 nM
Structure (SMILES): O=C(c1ccc(F)cc1)C1CCN(C[C@H]2COc3ccc4[nH]c(=O)[nH]c4c3O2)CC1 [Example 6, 8-[4-(4-Fluoro-benzoyl)-piperidin-1-ylmethyl]-1,3,7,8-tetrahydro-6,9-dioxa-1,3-diaza-cyclopenta[a]naphthalen-2-one]

- IC50 [1]: 0.02 nM
Structure (SMILES): O=c1[nH]c2ccc3c(c2[nH]1)OC(CNCCCc1c[nH]c2ccccc12)CO3 (stereo not drawn) [Example 8, 8-{[3-(1H-indol-3-yl)-propylamino]-methyl}-1,3,7,8-tetrahydro-6,9-dioxa-1,3-diaza-cyclopenta[a]naphthalen-2-one]

- IC50 [1]: 6.78 nM
Structure (SMILES): O=c1[nH]c2ccc3c(c2[nH]1)O[C@@H](CN1CCc2ccccc2C1)CO3 [Example 5]
